Measurements as given in paper PMC3770139 (Molecular cell, 2013).

Molecular target: T1, Gpa1 (yeast Gα) (Saccharomyces cerevisiae, UniProt P08539)
T1 sequence (P08539 2-472): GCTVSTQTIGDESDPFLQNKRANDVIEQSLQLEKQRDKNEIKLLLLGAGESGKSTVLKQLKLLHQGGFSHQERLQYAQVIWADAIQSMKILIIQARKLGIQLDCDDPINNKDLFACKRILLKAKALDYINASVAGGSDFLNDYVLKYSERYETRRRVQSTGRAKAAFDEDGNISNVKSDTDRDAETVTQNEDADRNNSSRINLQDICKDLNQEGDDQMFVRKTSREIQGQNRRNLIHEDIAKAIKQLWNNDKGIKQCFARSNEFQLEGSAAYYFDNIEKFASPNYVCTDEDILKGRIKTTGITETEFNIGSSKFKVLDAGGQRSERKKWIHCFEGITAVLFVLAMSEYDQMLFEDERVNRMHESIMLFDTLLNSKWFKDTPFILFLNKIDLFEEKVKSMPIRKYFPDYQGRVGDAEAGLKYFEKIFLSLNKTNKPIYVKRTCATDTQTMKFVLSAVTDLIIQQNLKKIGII
Assay: steady-state hydrolysis of gamma-32P GTP, charcoal assay
Assay type: biochemical
Conditions: turnover only; 5 µM GTP, 1 mM MgCl2, 37 °C, pH 6.0, 7.0, 8.0

Nc1nc2c(ncn2[C@@H]2O[C@H](COP(=O)(O)OP(=O)(O)OP(=O)(O)O)[C@@H](O)[C@H]2O)c(=O)[nH]1 [GTP]
steady-state hydrolysis of gamma-32P GTP, charcoal assay: Steady-state GTP hydrolysis by yeast Gpa1 and mammalian Gαi
